US10760110B2, “Antibiotic testing and screening system” (priority 2017, dated 2020)
Converted amounts (≈) assume the structure as drawn. Read-outs that look alike come from different tables or passages of the source.

Tests used:
[1] = tested on: A. baumannii KW1 and its AdeR/AdeS mutants; experiment: Etest MIC, AdeABC overexpression via AdeR or AdeS mutation (Table 16); assay type: cell-based, Acinetobacter baumannii
From the text: DNA fragments of the entire adeR, adeS, gyrA and parC along with their flanking regions were amplified from A. baumannii KW1 using PCR with specific primer pairs and then cloned into plasmid pUT-KB. The QuikChange site-directed mutagenesis kit (Stratagene) was used to generate mutations in the adeR, adeS, gyrA and parC genes in the plasmids using the methods described by the manufacturer. For homologous recombination, plasmids containing mutations in the adeR, adeS, gyrA or parC gene were transformed into E. coli S17-1 λpir^23 via electroporation and mobilized into A. baumannii KW1 via conjugation. Single-crossover strains were selected from Luria-Bertani (LB) plates supplemented with cefotaxime (1 μg/ml) and kanamycin ([…]), as the growth of non-A. baumannii contaminants is suppressed by cefotaxime (1 μg/ml). The kanamycin-resistant transconjugants were selected and the insertion of plasmids was verified via PCR. After incubation in 20 ml brain heart infusion (BHI) broth for 6 hours in the absence of kanamycin at 37° C., the fully grown cultures were spread onto LB plates supplemented with 10% sucrose. After the double crossover occurred, the sucrose-resistant and kanamycin-susceptible colonies were selected, and the gene mutations were confirmed via PCR.
(§1) The MICs of antibiotics were determined using the Etest (Biodisk AB, Sweden) according to the manufacturer's instructions. The MICs from the Etest, which fall between standard two-fold dilutions, were rounded up to the next highest two-fold value. The MICs of ceftazidime and cefotaxime against K. pneumoniae NVT1001 harbouring the pACYC177 plasmid with blaOXA-48 were further determined using a broth microdilution test according to the recommendations of the CLSI,^25 and the results were interpreted according to the breakpoints established by the CLSI in 2017.^25 Meanwhile, due to the lack of CLSI breakpoints in 2016 and 2017, the results for cephalothin were interpreted according to the breakpoints established by the CLSI in 2015,^26 and the results for moxifloxacin were interpreted according to the breakpoints established by the EUCAST in 2017.^27

[2] = tested on: A. baumannii KW1 strains with β-lactamase plasmids; experiment: Etest MIC of β-lactams, extended-spectrum β-lactamase, AmpC β-lactamase or carbapenemase (Table 18); assay type: cell-based, Acinetobacter baumannii
Procedure: (§2) DNA fragments of the resistance genes along with their flanking regions were amplified from clinical plasmids via PCR with specific primer pairs. The resulting PCR fragments were digested and then cloned into the plasmid pYMAb5 or pYMAb5Tc. The resulting plasmids were then transformed into A. baumannii KW1 via electroporation.
as §1

[3] = tested on: A. baumannii KW1 strains with tet resistance gene plasmids; experiment: Etest MIC of tetracyclines, tet resistance gene (Table 20); assay type: cell-based, Acinetobacter baumannii; settings: for MIC: Acinetobacter baumannii
Procedure: as §2, §1

[4] = tested on: K. pneumoniae NVT1001 and ΔramR strains with tet resistance gene plasmids; experiment: Etest MIC of tetracyclines, AcrAB-TolC overexpression (ΔramR) and/or tet resistance gene (Table 14); assay type: cell-based, Klebsiella pneumoniae; settings: for MIC: Klebsiella pneumoniae
Procedure: DNA fragments of the resistance genes along with their flanking regions were amplified from clinical plasmids via PCR with specific primer pairs. The resulting PCR fragments were digested and then cloned into the plasmid pACYC177 or pACYC184. The resulting plasmids were then transformed into K. pneumoniae strain NVT1001 via electroporation. The recombinant bacteria were plated onto LB agar plates containing kanamycin (50 mg/L) or chloramphenicol (50 mg/L), and the presence of the cloned gene was confirmed via PCR and DNA sequencing.
as §1

[5] = tested on: K. pneumoniae NVT1001 and its ΔompK35/36 and/or ΔramR mutants; experiment: Etest MIC, OmpK35/36 loss and AcrAB-TolC overexpression (ΔramR) strains (Table 6); assay type: cell-based, Klebsiella pneumoniae; settings: Klebsiella pneumoniae
Method in brief: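 MICs were read by Etest strip following the manufacturer's instructions, and values falling between standard two-fold dilutions were rounded up to the next two-fold step. Ceftazidime and cefotaxime were also tested by CLSI broth microdilution and interpreted against CLSI 2017 breakpoints; cephalothin used CLSI 2015 and moxifloxacin EUCAST 2017.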

[6] = tested on: K. pneumoniae NVT1001 ΔramRΔompK35/36 mutant and its revertants; experiment: Etest MIC, ΔramRΔompK35/36 mutant and its revertants (Table 7); assay type: cell-based; settings: Klebsiella pneumoniae
[7] = NVT1001, Tet(A) on pACYC177, read-out: MIC
[8] = NVT1001, Tet(B) on pACYC177, read-out: MIC
[9] = NVT1001, Tet(C) on pACYC177, read-out: MIC
[10] = NVT1001, Tet(D) on pACYC177, read-out: MIC
[11] = NVT1001, Tet(M) on pACYC177, read-out: MIC
[12] = Acinetobacter baumannii, A91V mutant (AdeR)
[13] = Acinetobacter baumannii, A94V mutant (AdeS)
[14] = Acinetobacter baumannii, D20N mutant (AdeR)
[15] = Acinetobacter baumannii, G30D mutant (AdeS)
[16] = Acinetobacter baumannii, KW1, read-out: MIC
[17] = Acinetobacter baumannii, P116L mutant (AdeR)
[18] = Acinetobacter baumannii, R152K mutant (AdeS)
[19] = Acinetobacter baumannii, T153M mutant (AdeS)

CC(C)(O/N=C(\C(=O)N[C@@H]1C(=O)N2C(C(=O)[O-])=C(C[n+]3ccccc3)CS[C@H]12)c1csc(N)n1)C(=O)O [CAZ]
MIC ([1]; A91V mutant (AdeR)): 16 µg/mL
MIC ([1]; A94V mutant (AdeS)): 8 µg/mL
MIC ([1]; D20N mutant (AdeR)): 12 µg/mL
MIC ([1]; G30D mutant (AdeS)): 8 µg/mL
MIC ([1]; KW1): 4 µg/mL
MIC ([1]; P116L mutant (AdeR)): 8 µg/mL
MIC ([1]; R152K mutant (AdeS)): 8 µg/mL
MIC ([1]; T153M mutant (AdeS)): 8 µg/mL
MIC ([2]; KW1, no supplemental plasmid): 4 µg/mL
MIC ([2]; KW1 with ADC-30 on pYMAb5): >256 µg/mL
MIC ([2]; KW1 with CTX-M-15 on pYMAb5): >256 µg/mL
MIC ([2]; KW1 with IMP-1 on pYMAb5): 48 µg/mL
MIC ([2]; KW1 with NDM-1 on pYMAb5): >256 µg/mL
MIC ([2]; KW1 with OXA-23 on pYMAb5): 3 µg/mL
MIC ([2]; KW1 with OXA-58 on pYMAb5): 3 µg/mL
MIC ([2]; KW1 with OXA-66 on pYMAb5): 3 µg/mL
MIC ([2]; KW1 with OXA-72 on pYMAb5): 3 µg/mL
MIC ([2]; KW1 with VEB-3 on pYMAb5): >256 µg/mL
MIC ([2]; KW1 with VIM-1 on pYMAb5): >256 µg/mL
MIC ([2]; KW1 with shuttle vector pYMAb5): 3 µg/mL

CN(C)[C@@H]1C(O)=C(C(N)=O)C(=O)[C@@]2(O)C(O)=C3C(=O)c4c(O)cccc4[C@@](C)(O)[C@H]3C[C@@H]12 [Tetracycline, tetracycline]
MIC ([3]; KW1, Tet(A) on pYMAb5): 128 µg/mL
MIC ([3]; KW1, Tet(B) on pYMAb5): > 256 µg/mL
MIC ([3]; KW1, Tet(M) on pYMAb5): 48 µg/mL
MIC ([3]; KW1, no supplemental plasmid): 3 µg/mL
MIC ([3]; KW1 with shuttle vector pYMAb5): 3 µg/mL
increase in the MIC ([3]; production of Tet(A), Tet(B) or Tet(C)): 4 fold
MIC [4, 7]: > 256 µg/mL
MIC [4, 8]: > 256 µg/mL
MIC [4, 9]: 16 µg/mL
MIC [4, 10]: > 256 µg/mL
MIC [4, 11]: 16 µg/mL
MIC ([4]; ΔramR, Tet(A) on pACYC177): > 256 µg/mL
MIC ([4]; ΔramR, Tet(B) on pACYC177): > 256 µg/mL
MIC ([4]; ΔramR, Tet(C) on pACYC177): 256 µg/mL
MIC ([4]; ΔramR, Tet(D) on pACYC177): > 256 µg/mL
MIC ([4]; ΔramR, Tet(M) on pACYC177): 128 µg/mL
MIC [1, 12]: 12 µg/mL
MIC [1, 13]: 6 µg/mL
MIC [1, 14]: 8 µg/mL
MIC [1, 15]: 8 µg/mL
MIC [1, 16]: 3 µg/mL
MIC [1, 17]: 6 µg/mL
MIC [1, 18]: 6 µg/mL
MIC [1, 19]: 8 µg/mL
MIC ([5]; Δ36, ΔompK36 mutant): 2 µg/mL (≈ 4.5 µM)

CN(C)c1cc(NC(=O)CNC(C)(C)C)c(O)c2c1C[C@H]1C[C@H]3[C@H](N(C)C)C(O)=C(C(N)=O)C(=O)[C@@]3(O)C(O)=C1C2=O [Tigecycline, tigecycline]
MIC ([3]; KW1, Tet(A) on pYMAb5): 1 µg/mL
MIC ([3]; KW1, Tet(B) on pYMAb5): 0.38 µg/mL
MIC ([3]; KW1, Tet(M) on pYMAb5): 0.38 µg/mL
MIC ([3]; KW1, no supplemental plasmid): 0.38 µg/mL
MIC ([3]; KW1 with shuttle vector pYMAb5): 0.38 µg/mL
effects on the MIC ([3]; production of Tet(B) or Tet(M)): no observable effects
MIC [4, 7]: 8 µg/mL
MIC [4, 8]: 1 µg/mL
MIC [4, 9]: 1 µg/mL
MIC [4, 10]: 1 µg/mL
MIC [4, 11]: 1 µg/mL
MIC ([4]; NVT1001, no supplemental plasmid, read-out: MIC): 1 µg/mL
MIC ([4]; ΔramR, Tet(A) on pACYC177): 32 µg/mL
MIC ([4]; ΔramR, Tet(B) on pACYC177): 8 µg/mL
MIC ([4]; ΔramR, Tet(C) on pACYC177): 8 µg/mL
MIC ([4]; ΔramR, Tet(D) on pACYC177): 8 µg/mL
MIC ([4]; ΔramR, Tet(M) on pACYC177): 8 µg/mL
MIC ([4]; ΔramR, no supplemental plasmid): 8 µg/mL
increase in the MIC ([4]; Tet(A) production): 8 fold
effects on the MIC ([4]; production of Tet(B), Tet(C), Tet(D) or Tet(M), with or without ΔramR): no observable effects
increase in the MIC ([4]; {}): 8 fold
MIC ([6]; ΔramRΔompK35/36::ompK35/36 revertant): 8 µg/mL
MIC ([6]; ΔramRΔompK35/36::ompK35 revertant): 8 µg/mL
MIC ([6]; ΔramRΔompK35/36::ompK36 revertant): 8 µg/mL
MIC ([6]; ΔramRΔompK35/36::ramR revertant): 1 µg/mL
MIC ([6]; ΔramRΔompK35/36::ramR::ompK35/36 revertant): 1 µg/mL
MIC ([6]; ΔramRΔompK35/36::ramR::ompK35 revertant): 1 µg/mL
MIC ([6]; ΔramRΔompK35/36::ramR::ompK36 revertant): 1 µg/mL
MIC ([6]; ΔramRΔompK35/36 mutant): 8 µg/mL
MIC [1, 12]: 3 µg/mL
MIC [1, 13]: 2 µg/mL
MIC [1, 14]: 2 µg/mL
MIC [1, 15]: 3 µg/mL
MIC [1, 16]: 0.25 µg/mL
MIC [1, 17]: 1.5 µg/mL
MIC [1, 18]: 2 µg/mL
MIC [1, 19]: 3 µg/mL
MIC ([5]; WT, NVT1001, read-out: MIC): 1 µg/mL (≈ 1.71 µM)
MIC ([5]; Δ35, ΔompK35 mutant): 1 µg/mL (≈ 1.71 µM)
MIC ([5]; Δ35/36, ΔompK35/36 mutant): 1 µg/mL (≈ 1.71 µM)
MIC ([5]; Δ36, ΔompK36 mutant): 1 µg/mL (≈ 1.71 µM)
MIC ([5]; ΔramR mutant): 8 µg/mL (≈ 13.7 µM)
MIC ([5]; ΔramRΔ35, ΔramRΔompK35 mutant): 8 µg/mL (≈ 13.7 µM)
MIC ([5]; ΔramRΔ35/36, ΔramRΔompK35/36 mutant): 8 µg/mL (≈ 13.7 µM)
MIC ([5]; ΔramRΔ36, ΔramRΔompK36 mutant): 8 µg/mL (≈ 13.7 µM)
